Consider five compounds from PubChem BioAssay AID1259407 (Chemical Carcinogenesis Research Information System (CCRIS), 2018).

Activity calls are given as the source filed them. The rule behind the calls is not given here. Where a SMILES comes first, the peptide text is derived from it.

The series relates to CCRIS mutagenicity, Ames/micronucleus/aberration tests. The series can be described thus: CCRIS mutagenicity studies.
Where [1] appears, read: Test System: AMES SALMONELLA TYPHIMURIUM, Strain/Indicator: TA100, Metabolic Activation: NONE, Method: STANDARD PLATE.

On to `CC(C)C(=O)N=c1sn(C(=O)C(C)C)c2ccc([N+](=O)[O-])cc12`, for which the mutagenic call (Test System: AMES SALMONELLA TYPHIMURIUM, Strain/Indicator: TA100, Metabolic Activation: S-9, Method: STANDARD PLATE) is “active; positive”.
`CC(=O)CC(C)(C)O`: the mutagenic call runs as follows: (Test System: AMES SALMONELLA TYPHIMURIUM, Strain/Indicator: TA98, Metabolic Activation: HAMSTER, LIVER, S-9, AROCLOR 1254, Method: STANDARD PLATE) “inactive; negative”; (Test System: AMES SALMONELLA TYPHIMURIUM, Strain/Indicator: TA98, Metabolic Activation: NONE, Method: STANDARD PLATE) “inactive; negative”; (Test System: AMES SALMONELLA TYPHIMURIUM, Strain/Indicator: TA98, Metabolic Activation: RAT, LIVER, S-9, AROCLOR 1254, Method: STANDARD PLATE) “inactive; negative”; (Test System: AMES SALMONELLA TYPHIMURIUM, Strain/Indicator: TA100, Metabolic Activation: HAMSTER, LIVER, S-9, AROCLOR 1254, Method: STANDARD PLATE) “inactive; negative”; under setting [1], “inactive; negative”; (Test System: AMES SALMONELLA TYPHIMURIUM, Strain/Indicator: TA100, Metabolic Activation: RAT, LIVER, S-9, AROCLOR 1254, Method: STANDARD PLATE) “inactive; negative”. Also, the mutagenic call is “inactive; negative” (Test System: AMES SALMONELLA TYPHIMURIUM, Strain/Indicator: TA1535, Metabolic Activation: HAMSTER, LIVER, S-9, AROCLOR 1254, Method: STANDARD PLATE); “inactive; negative” (Test System: AMES SALMONELLA TYPHIMURIUM, Strain/Indicator: TA1535, Metabolic Activation: NONE, Method: STANDARD PLATE); “inactive; negative” (Test System: AMES SALMONELLA TYPHIMURIUM, Strain/Indicator: TA1535, Metabolic Activation: RAT, LIVER, S-9, AROCLOR 1254, Method: STANDARD PLATE); “inactive; negative” (Test System: AMES SALMONELLA TYPHIMURIUM, Strain/Indicator: TA1537, Metabolic Activation: HAMSTER, LIVER, S-9, AROCLOR 1254, Method: STANDARD PLATE); “inactive; negative” (Test System: AMES SALMONELLA TYPHIMURIUM, Strain/Indicator: TA1537, Metabolic Activation: NONE, Method: STANDARD PLATE); “inactive; negative” (Test System: AMES SALMONELLA TYPHIMURIUM, Strain/Indicator: TA1537, Metabolic Activation: RAT, LIVER, S-9, AROCLOR 1254, Method: STANDARD PLATE). The mutagenic call reads like this: (Test System: AMES SALMONELLA TYPHIMURIUM, Strain/Indicator: TA1538, Metabolic Activation: HAMSTER, LIVER, S-9, AROCLOR 1254, Method: STANDARD PLATE) “inactive; negative”; (Test System: AMES SALMONELLA TYPHIMURIUM, Strain/Indicator: TA1538, Metabolic Activation: NONE, Method: STANDARD PLATE) “inactive; negative”; (Test System: AMES SALMONELLA TYPHIMURIUM, Strain/Indicator: TA1538, Metabolic Activation: RAT, LIVER, S-9, AROCLOR 1254, Method: STANDARD PLATE) “inactive; negative”; (Test System: Mouse lymphoma, Strain/Indicator: L5178Y (tk+/tk-), Metabolic Activation: None, Method: Suspension/plate) “inactive; negative”; (Test System: Mouse lymphoma, Strain/Indicator: L5178Y (tk+/tk-), Metabolic Activation: Rat, Liver, S-9, Aroclor 1254, Method: Suspension/plate) “inactive; negative”.
On to `O=c1nc(NO)ccn1[C@@H]1O[C@H](CO)[C@@H](O)[C@H]1O`, for which the mutagenic call (Test System: E. COLI, Strain/Indicator: WP2, Metabolic Activation: NONE, Method: STANDARD PLATE) was “active; positive” and the mutagenic call (Test System: E. COLI, Strain/Indicator: WP2 UVRA, Metabolic Activation: NONE, Method: STANDARD PLATE) was “active; positive”.
Consider `C[C@@H](Br)C(=O)NCc1ccccc1`, for which the mutagenic call under setting [1] is “active; positive”.
On to `COC(=O)[C@H](Cc1ccccc1)NC(=O)[C@@H](N)CC(=O)O` (H-Asp-Phe-OMe), for which the mutagenic call was “inactive; negative” (End Point: In vivo micronucleus, Test System: Bone marrow polychromatic erythrocytes, Species: Rat, Strain/Sex: F344/N, Male, Route: Oral); “inactive; negative” (End Point: In vivo micronucleus, Test System: Peripheral blood normochromatic erythrocytes, Species: Mouse, Strain/Sex: B6.129-Cdkn2atm1Rdp (N2) Cdkn2a deficient/Female, Route: Oral); “inactive; negative” (End Point: In vivo micronucleus, Test System: Peripheral blood normochromatic erythrocytes, Species: Mouse, Strain/Sex: B6.129-Cdkn2atm1Rdp (N2) Cdkn2a deficient/Male, Route: Oral); “active; positive (significant trend test and significant (p=0.0004) increase in frequenc” (End Point: In vivo micronucleus, Test System: Peripheral blood normochromatic erythrocytes, Species: Mouse, Strain/Sex: B6.129-Trp53tm1Brd (N5) p53 Haploinsufficient/Female, Route: Oral); “inactive; negative” (End Point: In vivo micronucleus, Test System: Peripheral blood normochromatic erythrocytes, Species: Mouse, Strain/Sex: B6.129-Trp53tm1Brd (N5) p53 Haploinsufficient/Male, Route: Oral); “inactive; negative” (End Point: In vivo micronucleus, Test System: Peripheral blood normochromatic erythrocytes, Species: Mouse, Strain/Sex: FVB Tg.Ac hemizygous/Female, Route: Oral). The mutagenic call (End Point: In vivo micronucleus, Test System: Peripheral blood normochromatic erythrocytes, Species: Mouse, Strain/Sex: FVB Tg.Ac hemizygous/Male, Route: Oral) was “inactive; negative”; the mutagenic call (Test System: Ames Salmonella typhimurium, Strain/Indicator: TA97, Metabolic Activation: Hamster, liver, S-9, Aroclor 1254, 10 and 30%, Method: Preincubation) is “inactive; negative”; the mutagenic call (Test System: Ames Salmonella typhimurium, Strain/Indicator: TA97, Metabolic Activation: None, Method: Preincubation) was “inactive; negative”; the mutagenic call (Test System: Ames Salmonella typhimurium, Strain/Indicator: TA97, Metabolic Activation: Rat, liver, S-9, Aroclor 1254 (10% or 30%), Method: Preincubation) is “active; positive in two trials with 30% s-9”; the mutagenic call (Test System: Ames Salmonella typhimurium, Strain/Indicator: TA98, Metabolic Activation: Hamster, liver, S-9, Aroclor 1254, 10 and 30%, Method: Preincubation) is “inactive; negative”; the mutagenic call (Test System: Ames Salmonella typhimurium, Strain/Indicator: TA98, Metabolic Activation: None, Method: Preincubation) is “inactive; negative”. For the same compound, the mutagenic call is “inactive; negative” (Test System: Ames Salmonella typhimurium, Strain/Indicator: TA98, Metabolic Activation: Rat, liver, S-9, Aroclor 1254, 10 and 30%, Method: Preincubation); “inactive; negative” (Test System: Ames Salmonella typhimurium, Strain/Indicator: TA100, Metabolic Activation: Hamster, liver, S-9, Aroclor 1254, 10 and 30%, Method: Preincubation); “inactive; negative” (Test System: Ames Salmonella typhimurium, Strain/Indicator: TA100, Metabolic Activation: None, Method: Preincubation); “inactive; negative” (Test System: Ames Salmonella typhimurium, Strain/Indicator: TA100, Metabolic Activation: Rat, liver, S-9, Aroclor 1254, 10 and 30%, Method: Preincubation); “inactive; negative” (Test System: Ames Salmonella typhimurium, Strain/Indicator: TA1535, Metabolic Activation: Hamster, Liver, S-9, Aroclor 1254, 10 and 30%, Method: Preincubation); “inactive; negative” (Test System: Ames Salmonella typhimurium, Strain/Indicator: TA1535, Metabolic Activation: None, Method: Preincubation). Further, the mutagenic call reads like this: (Test System: Ames Salmonella typhimurium, Strain/Indicator: TA1535, Metabolic Activation: Rat, liver, S-9, Aroclor 1254, 10 and 30%, Method: Preincubation) “inactive; negative”; (Test System: Ames Salmonella typhimurium, Strain/Indicator: TA1537, Metabolic Activation: Rat, liver, S-9, Aroclor 1254, 30%, Method: Preincubation) “inactive; negative”.
